This note sets out measurements from paper PMC12298883, “Discovery of Cyclopentane-Based Phospholipids as Miltefosine Analogs with Superior Potency and Enhanced Selectivity Against Naegleria fowleri” (Pharmaceuticals, 2025).

Data set [1] relates to N. fowleri trophozoites. Put plainly: Anti-amoebic viability assay (CellTiter-Blue) with microscopic observation. It counts as cell-based, Naegleria fowleri. The note with it: for Selectivity Index: CC50 of C6 glial cell divided by IC50 of inhibition of N. fowleri; for Relative Potency to Miltefosine: IC50 of miltefosine divided by IC50 of compound, N. fowleri; for IC50: Naegleria fowleri, 48 h, N. fowleri trophozoites, viability, mean ± SD of three assays, read-out: IC50 of Inhibition of N. fowleri; for fold increase in potency of anti-amoebic activity relative to corresponding cis-configured derivative: trans vs cis 1,2-restricted derivative with same alkyl chain. As to the method: (§1) A viability assay was performed to evaluate the inhibitory activity of the tested compounds by determining their IC50 values against N. fowleri, using miltefosine as a reference drug. To assess the selectivity of the tested compounds relative to miltefosine, cytotoxic values that reduced the viability of C6 glial cells by 50% were established.
(§2) N. fowleri Carter NF69 strain (ATCC 30215; American Type Culture Collection, Manassas, VA, USA) was used. Amoeba trophozoites were cultured and maintained in Nelson’s medium containing 5% foetal bovine serum (FBS; Gibco, Grand Island, NY, USA) and 1% penicillin/streptomycin (P/S; Gibco, Grand Island, NY, USA) at 37 °C [56]. C6 rat glial cells (C6 cells; ATCC CCL-107) were cultured in Dulbecco’s Modified Eagle’s Medium (DMEM; Gibco, Grand Island, NY, USA) supplemented with 10% FBS (Gibco, Grand Island, NY, USA) and 1% P/S (Gibco, Grand Island, NY, USA) at 37 °C in a humidified incubator under 5% CO2 atmosphere.
N. fowleri trophozoites (5 × 10^4 cells/well) were seeded in a 96-well microplate (Thermo Fisher Scientific, Waltham, MA, USA) in Nelson’s medium and incubated at 37 °C overnight. N. fowleri trophozoites were treated with 2-fold serial dilutions of tested compounds (from 0 to 200 µM) or miltefosine (150 µM) and incubated at 37 °C for 48 h. The viability of the amoebae was determined using the CellTiter-Blue® Cell viability assay (Promega, Madison, WI, USA). Inhibitory concentration 50 (IC50) and IC90 were calculated by the nonlinear regression method using GraphPad Prism 9.1.0 software (GraphPad Software, San Diego, CA, USA). Amoebae treated with 0.1% DMSO were used as a control, representing 100% cell viability. Morphological changes of the amoebae were observed microscopically.
(Resazurin is reduced to fluorescent resorufin, in cell work by metabolically active cells.)

Data set [2] can be described thus: Cytotoxicity assay for C6 cells (CellTiter-Blue). It counts as cell-based. The conditions noted are these: rat, C6 glial cells, viability, mean ± SD. Here is the method: as §1, §2
The potential cytotoxicity of tested compounds and miltefosine in C6 cells was analysed. The cells were seeded in a 96-well microplate (Thermo Fisher Scientific; 2 × 10^4 cells/well), respectively, and incubated overnight until 80% confluent. Serially diluted tested compounds and miltefosine were treated to the cells as described above. Morphological changes of the cells were observed by microscopic examination. Cell viability was determined using the CellTiter-Blue® Cell viability assay (Promega, […], USA). The cytotoxic concentrations 50 (CC50) of tested compounds and miltefosine were calculated using GraphPad Prism 9.1.0 software (GraphPad Software, San Diego, CA, USA). The […] (SI) was determined by the ratio between CC50 and IC50. Cells treated with 0.1% DMSO, which was confirmed not to alter the morphology of the cells by microscopic examination, were used as controls with 100% cell viability.

The term IC50 denotes the concentration at which inhibition is half-maximal. As usually defined, the CC50 is the concentration giving 50% cytotoxicity. Take `CCCCCCCCCCCCO[C@H]1CCC[C@H]1COP(=O)([O-])OCC[N+](C)(C)C` [Compound 1a]: in data set [1], the “Selectivity Index” value was over 2.47, the “Relative Potency to Miltefosine” value is recorded as about 0.90 fold and the half-inhibitory concentration (IC50) came out at 162 ± 1.02 µM. Further, in data set [2], the CC50 was over 400 µM.
Taken in the same sequence, the figures for `CCCCCCCCCCCCCO[C@H]1CCC[C@H]1COP(=O)([O-])OCC[N+](C)(C)C` [Compound 1b] were 2.69, 3.74 fold, 39.1 ± 0.6 µM and 105 ± 4.76 µM.
`CCCCCCCCCCCCCCCCCCO[C@H]1CCC[C@H]1COP(=O)([O-])OCC[N+](C)(C)C` [Compound 1c]: in data set [1], the “Selectivity Index” value was 2.18, the “Relative Potency to Miltefosine” value turned out to be 2.01 fold and the IC50 was 72.7 ± 2.32 µM. The compound further returned a CC50 in data set [2] of 158.4 ± 0.71 µM.
Taken in the same sequence, the figures for `CCCCCCCCCCCCCCCCCCCCO[C@H]1CCC[C@H]1COP(=O)([O-])OCC[N+](C)(C)C` [Compound 1d] were 1.59, 3.4 fold, 43.6 ± 1.02 µM and 69.49 ± 0.16 µM.
For `CCCCCCCCCCCCCCCCCCCCCCO[C@H]1CCC[C@H]1COP(=O)([O-])OCC[N+](C)(C)C` [Compound 1e], in that order: 0.69, 0.88 fold, 166 ± 68 µM and 114 ± 3.2 µM.
For the compound `CCCCCCCCCCCCCCCCCCO[C@@H]1CCC[C@H]1COP(=O)([O-])OCC[N+](C)(C)C` [Compound 2b], in data set [1], the “Selectivity Index” value came out at 2.94, the “Relative Potency to Miltefosine” value is 6.18 fold, the IC50 is 23.7 ± 0.5 µM and the “fold increase in potency of anti-amoebic activity relative to corresponding cis-configured derivative” value was 2.19- to 3.07 fold. For the same compound, in data set [2], half-maximal cytotoxicity (CC50) was put at 69.71 ± 0.04 µM.
Consider `CCCCCCCCCCCCCCCCCCCCO[C@@H]1CCC[C@H]1COP(=O)([O-])OCC[N+](C)(C)C` [Compound 2c], for which, in data set [1], the “Selectivity Index” value amounted to 2.19, the “Relative Potency to Miltefosine” value is 7.46 fold, the IC50 stood at 19.6 ± 0.44 µM and the “fold increase in potency of anti-amoebic activity relative to corresponding cis-configured derivative” value is listed as 2.19- to 3.07 fold. Further, the CC50 in data set [2] was 43 ± 8.37 µM.
Regarding `CCCCCCCCCCCCCCCCCCCCCCO[C@@H]1CCC[C@H]1COP(=O)([O-])OCC[N+](C)(C)C` [Compound 2d], in data set [1], the “Selectivity Index” value came out at 1.28, the “Relative Potency to Miltefosine” value was found to be 2.63 fold, the concentration for half-maximal inhibition (IC50) amounted to 55.6 ± 3.32 µM and the “fold increase in potency of anti-amoebic activity relative to corresponding cis-configured derivative” value was determined as 2.98 fold. This compound also returned a half-maximal cytotoxic concentration (CC50) in data set [2] of 71.03 ± 0.61 µM.
Consider `CCCCCCCCCCCCOC[C@@H]1CCC[C@H]1OP(=O)([O-])OCC[N+](C)(C)C` [Compound 3a], for which, in data set [1], the “Selectivity Index” value is over 1.43, the “Relative Potency to Miltefosine” value is recorded as 0.52 fold and the concentration for half-maximal inhibition (IC50) was found to be 279.4 ± 0.94 µM. Moreover, the CC50 in data set [2] is over 400 µM.
For `CCCCCCCCCCCCCCCCCCOC[C@@H]1CCC[C@H]1OP(=O)([O-])OCC[N+](C)(C)C` [Compound 3c], in that order: 0.77, 1.92 fold, 76.3 ± 1.56 µM and 58.5 ± 2.08 µM.
